Biological target: T1, human H1 receptor (Homo sapiens, UniProt P35367)
T1 construct: purchased Euroscreen SA, Brussels, Belgium ES-390-M; host or cells: CHO-K1
Test: Histamine H1 receptor binding, competition displacement of [3H]-pyrilamine
Conditions: displacement of 1 nM [3H]-pyrilamine; membranes from recombinant CHO-K1 cells expressing the human H1 receptor; 1 hour at room temperature; read-out: H1 pKi/[1328_S] (converted)
Description: Histamine H1 receptor binding activity of compounds of the invention was assessed by competition displacement of 1 nM [3H]-pyrilamine (Amersham, Bucks, Product code TRK 608, specific activity 30 Ci/mmol) to 2 μg membranes prepared from recombinant CHO-K1 cells expressing the human H1 receptor (Euroscreen SA, Brussels, Belgium, product code ES-390-M) in assay buffer (50 mM Tris pH 7.4 containing 2 mM MgCl2, 250 mM sucrose and 100 mM NaCl) for 1 hour at room temperature.

T1 sequence (P35367 whole entry): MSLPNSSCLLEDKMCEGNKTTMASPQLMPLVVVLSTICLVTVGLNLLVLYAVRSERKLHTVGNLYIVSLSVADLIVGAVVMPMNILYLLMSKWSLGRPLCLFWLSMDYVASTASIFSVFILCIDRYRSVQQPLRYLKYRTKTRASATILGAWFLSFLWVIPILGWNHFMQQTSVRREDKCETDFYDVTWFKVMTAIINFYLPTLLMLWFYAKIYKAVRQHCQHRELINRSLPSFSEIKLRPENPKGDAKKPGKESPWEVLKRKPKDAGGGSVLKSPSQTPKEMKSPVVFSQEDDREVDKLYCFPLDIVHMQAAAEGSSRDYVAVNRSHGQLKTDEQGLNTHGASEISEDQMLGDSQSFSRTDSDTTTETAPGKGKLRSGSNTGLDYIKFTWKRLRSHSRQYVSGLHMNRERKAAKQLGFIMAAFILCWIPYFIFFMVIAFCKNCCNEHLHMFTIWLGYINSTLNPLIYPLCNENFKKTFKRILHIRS

Row | Compound | Ki
1 | Cc1c(Cl)ccc(OC2CCN(CC3CCN(C(=O)c4ccccc4C(=O)O)CC3)CC2)c1Cl [Example 2, 2-[[4-[[4-(2,4-Dichloro-3-methylphenoxy)-1-piperidinyl]methyl]-1-piperidinyl]carbonyl]-benzoic acid] | 63.1 nM
2 | Cc1c(OC2CCN(CC3CCN(C(=O)c4ccccc4C(=O)O)CC3)CC2)ccc(Cl)c1Cl [Example 3, 2-[[4-[[4-(3,4-Dichloro-2-methylphenoxy)-1-piperidinyl]methyl]-1-piperidinyl]carbonyl]-benzoic acid] | 200 nM
3 | O=C(O)Cc1ccccc1C(=O)N1CCC(CN2CCC(Oc3ccc(Cl)c(Cl)c3)CC2)CC1 [Example 12, 2-[[4-[[4-(3,4-dichlorophenoxy)-1-piperidinyl]methyl]-1-piperidinyl]carbonyl]-benzeneacetic acid] | 251 nM

Further lines, results first:

Row | Ki | Compound
4 | 316 nM | O=C(O)c1ccccc1C(=O)N1CCC(CN2CCC(Oc3ccc(Cl)c(Cl)c3)CC2)CC1 [Example 1, 2-[[4-[[4-(3,4-dichlorophenoxy)-1-piperidinyl]methyl]-1-piperidinyl]carbonyl]-benzoic acid]
5 | 31.6 nM | CS(=O)(=O)c1cc(C(=O)N2CCC(CN3CCC(Oc4ccc(Cl)c(Cl)c4)CC3)CC2)ccc1O [Example 19, 4-[[4-(3,4-dichlorophenoxy)-1-piperidinyl]methyl]-1-[4-hydroxy-3-(methylsulfonyl)benzoyl]-piperidine]
